# Measurements from patent US4431634A, “Prenatal iron supplements” (American Cyanamid Company, priority 1981, dated 1984).
# Like-named read-outs stand apart in the source and are kept apart here.
# What was measured:
# [1] = human, in vivo
# Procedure: (§1) The absorption of iron was established by collection of venous blood samples collected by hypodermic syringe and clotted at room temperature for one hour in silicone coated glass tubes. The tubes were centrifuged at 4,000 g for 30 minutes at 4° C. to isolate the serum which is removed and stored at -20° C. The serum samples were assayed for serum iron via spectrophotometry using ferrozine reagent.
# (§2) The tests were conducted in healthy menstruating female volunteers 21 to 45 years of age having normal hemoglobin and hematocrit valves. The subjects fasted overnight. Fifteen to 24 subjects were used in each study. Each study was conducted as a randomized crossover trial with the composition being administered at 8 a.m. at 3 to 4 day intervals. Blood was first taken in the fasting state. Then the preparation was administered using 50 ml of deionized water and the subjects remained fasting until the final blood sample was obtained. Serum iron levels were assayed in duplicate on a blind basis.
# (§3) All valves were corrected using this valve for diurnal variation. Values for iron absorption were calculated from the increases in serum iron concentration measured 2 to 6 hours after iron ingestion.
# (§4) In each case, the quantities of mineral stated are on the basis of the elemental metal as opposed to the weight of the entire salt.
# (§5) This study involved 15 female subjects of child bearing age.
# (§6) Again, 15 females of child bearing age were studied using ferrous fumarate alone and in combinations of calcium sulfate (CS), calcium carbonate (CC) and magnesium oxide (MX). The study involved 15 females of child bearing age with data obtained three hours after oral ingestion.
# (§7) The data were obtained 3 hours after oral ingestion.
# [2] = Iron absorption in healthy menstruating female volunteers (serum iron after oral ingestion, randomized crossover; Studies I-IV); conditions: 3 hours after oral ingestion; for effect of co-administered mineral salt on iron absorption: Study II, co-administered with ferrous fumarate
# Procedure: as §1, §2, §3, §4, §5, §6, §7
compound,measurement,setting,value
"O=C([O-])/C=C/C(=O)[O-].[Fe+2] [Ferrous fumarate, ferrous fumarate, reference compound]","Calculated mean values for iron absorption, Average",[1],8.1 mg
O=C(O)O [calcium carbonate],effect of co-administered mineral salt on iron absorption,[2],additive inhibitory effects on iron absorption
same,effect of mineral component on bioavailability of the iron supplement,"[2]; Study III, mineral components of the formulations",depressant effects
[O]=[Mg] [magnesium oxide],effect of co-administered mineral salt on iron absorption,[1]; po,additive inhibitory effects on iron absorption
same,effect of mineral component on bioavailability of the iron supplement,[1]; po,depressant effects
"O=S(=O)([O-])[O-].[Ca+2] [Plaster of paris, calcium sulfate]",effect of co-administered mineral salt on iron absorption,[2],does not seem to be inhibitory
